Data from the supplement of paper PMC10883282.

Assays:
Assay in all cases: relative viability vs DMSO control (72 h) (fraction); higher = more viable cells
RD = tested on: RD
Outline: (§1)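 Sarcoma cell lines were grown in 384-well plates seeded toward 80–90% confluence and exposed 24 h later to serially diluted compound. After 72 h at 37 °C and 5% CO2, with 0.1% DMSO vehicle and a 5 µM positive control on the plates, ATPLite was read. Relative viability, given as percent growth averaged over up to triplicate wells, was rescaled so that 1 is full and 0 is none.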

VA-ES-BJ = tested on: VA-ES-BJ
Outline: as §1

HS729 = tested on: HS729
Outline: as §1

MES-SA = tested on: MES-SA
Outline: as §1

SK-LMS-1 = tested on: SK-LMS-1
Outline: as §1

C#Cc1cccc(Nc2ncnc3cc(OCCOC)c(OCCOC)cc23)c1 [Erlotinib]
relative viability
Conditions	HS729	MES-SA	RD	SK-LMS-1	VA-ES-BJ
0.00017 µM	1.03	0.95	1.08	1.06	1.088
0.00051 µM	0.978	0.973	1.09	1.06	1.08
0.00152 µM	0.976	0.979	1.09	1.09	1.08
0.00457 µM	0.961	0.945	1.08	1.07	1.08
0.01372 µM	1.01	0.96	1.07	1.09	1.06
0.04115 µM	1	0.972	1.09	1.12	1.08
0.1235 µM	0.995	0.959	1.09	1.07	1.09
0.3704 µM	1.01	0.948	1.1	1.11	1.03
1.111 µM	0.92	0.914	1.12	1.07	1.01
3.333 µM	0.781	0.687	1.04	0.941	0.888
10 µM	0.714	0.458	0.786	0.698	0.642

C=CC(=O)Nc1cccc(Nc2nc(Nc3ccc(N4CCN(C(C)=O)CC4)cc3OC)ncc2C(F)(F)F)c1 [Rociletinib]
relative viability
Conditions	HS729	MES-SA	RD	SK-LMS-1	VA-ES-BJ
0.00017 µM	1.01	0.95	1.04	1.07	1.04
0.00051 µM	0.925	0.955	1.078	1.089	1.05
0.00152 µM	0.9024	0.942	1.08	1.07	1.02
0.00457 µM	0.9205	0.957	1.112	1.07	1.03
0.01372 µM	0.902	0.942	1.11	1.05	0.981
0.04115 µM	0.924	0.944	1.08	1.03	0.991
0.1235 µM	0.89	0.926	1.11	1.04	0.994
0.3704 µM	0.812	0.9383	1.05	0.961	0.972
1.111 µM	0.697	0.765	0.911	0.847	0.915
3.333 µM	0.573	0.329	0.594	0.638	0.648
10 µM	0.343	0.193	0.293	0.373	0.399

Cc1nc(Nc2ncc(C(=O)Nc3c(C)cccc3Cl)s2)cc(N2CCN(CCO)CC2)n1 [Dasatinib]
relative viability
Conditions	HS729	MES-SA	RD	SK-LMS-1	VA-ES-BJ
0.00017 µM	0.947	0.935	1.12	1.03	1.04
0.00051 µM	0.959	0.919	1.12	1.06	1.04
0.00152 µM	0.95	0.903	1.09	1.09	1.04
0.00457 µM	0.869	0.91	1.02	1.04	0.996
0.01372 µM	0.796	0.879	0.953	1.03	0.856
0.04115 µM	0.696	0.825	0.775	0.895	0.688
0.1235 µM	0.633	0.799	0.536	0.722	0.502
0.3704 µM	0.618	0.791	0.458	0.623	0.447
1.111 µM	0.609	0.8428	0.426	0.611	0.413
3.333 µM	0.585	0.728	0.366	0.656	0.335
10 µM	0.581	0.258	0.267	0.4228	0.246

NC(=O)c1cccc2cn(-c3ccc([C@@H]4CCCNC4)cc3)nc12 [Niraparib]
relative viability
Conditions	HS729	MES-SA	RD	SK-LMS-1	VA-ES-BJ
0.00017 µM	0.876	0.9156	1.06	1.08	0.985
0.00051 µM	0.894	0.898	1.09	1.12	0.995
0.00152 µM	0.893	0.868	1.1	1.1	0.976
0.00457 µM	0.89	0.918	1.117	1.12	0.96
0.01372 µM	0.886	0.882	1.09	1.12	0.99
0.04115 µM	0.869	0.893	1.12	1.13	1.01
0.1235 µM	0.917	0.876	1.08	1.12	0.983
0.3704 µM	0.868	0.8654	1.05	1.1	0.947
1.111 µM	0.884	0.824	1.006	1.09	0.915
3.333 µM	0.877	0.774	0.899	1.03	0.873
10 µM	0.801	0.598	0.784	0.966	0.708

COc1cc2c(Oc3ccc4[nH]c(C)cc4c3F)ccnc2cc1OCC1(N)CC1 [Anlotinib]
relative viability
Conditions	HS729	MES-SA	RD	SK-LMS-1	VA-ES-BJ
0.00017 µM	0.944	0.921	1.06	1.08	0.975
0.00051 µM	0.908	0.9145	1.06	1.06	0.993
0.00152 µM	0.951	0.918	1.08	1.08	0.987
0.00457 µM	0.917	0.9154	1.07	1.05	0.979
0.01372 µM	0.935	0.947	1.06	1.06	0.977
0.04115 µM	0.909	0.949	1.09	1.05	0.978
0.1235 µM	0.911	0.924	1.07	1.04	0.997
0.3704 µM	0.795	0.951	1.04	1.03	1.022
1.111 µM	0.769	0.841	0.946	0.85	0.983
3.333 µM	0.678	0.271	0.594	0.416	0.62
10 µM	0.383	0.115	0.217	0.0427	0.505

Cc1cccc(-c2[nH]c(CNc3ccccc3F)nc2-c2ccc3ncnn3c2)n1 [Vactosertib]
relative viability
Conditions	HS729	MES-SA	RD	SK-LMS-1	VA-ES-BJ
0.00017 µM	0.964	0.892	1.07	0.968	1
0.00051 µM	0.969	0.881	1.06	0.963	1
0.00152 µM	0.938	0.885	1.06	0.981	1.006
0.00457 µM	0.962	0.866	1.09	0.982	1.02
0.01372 µM	0.928	0.877	1.07	0.984	1.026
0.04115 µM	0.939	0.901	1.09	0.978	1.04
0.1235 µM	0.882	0.894	1.07	0.95	1.038
0.3704 µM	0.849	0.897	1.09	0.918	1.08
1.111 µM	0.787	0.842	1.09	0.988	1.11
3.333 µM	0.73	0.873	1.07	0.992	1.11
10 µM	0.68	0.861	1.09	0.96	1.11

C1=N/C2=N/c3ccc(OCCN4CCCC4)c(c3)COC/C=C/COCc3cccc(c3)C(=C1)N2 [Pacritinib]
relative viability
Conditions	HS729	MES-SA	RD	SK-LMS-1	VA-ES-BJ
0.00017 µM	1.1	0.966	1.08	1.1	1.11
0.00051 µM	1.055	0.9661	1.1	1.136	1.11
0.00152 µM	1.03	0.953	1.12	1.08	1.09
0.00457 µM	1	0.951	1.11	1.085	1.07
0.01372 µM	1.02	0.938	1.13	1.08	1.06
0.04115 µM	0.9592	0.936	1.111	1.08	1.08
0.1235 µM	0.947	0.937	1.07	1.1	1.02
0.3704 µM	0.928	0.794	0.823	1.116	0.855
1.111 µM	0.698	0.46	0.462	0.959	0.149
3.333 µM	0.576	0.0101	0.158	0.539	0.0927
10 µM	0.232	0.00167	0.144	0.2186	0.0817

CCOc1cc2ncc(C#N)c(Nc3ccc(OCc4ccccn4)c(Cl)c3)c2cc1NC(=O)/C=C/[C@H]1CCCN1C [Pyrotinib]
relative viability
Conditions	HS729	MES-SA	RD	SK-LMS-1	VA-ES-BJ
5.081 pM	0.989	0.967	1.06	1.06	1.06
15.24 pM	0.917	0.957	1.08	1.06	1.05
45.72 pM	0.962	0.9512	1.11	1.06	1.02
0.000137174 µM	0.9073	0.959	1.11	1.07	1.04
0.000411523 µM	0.875	0.971	1.07	1.08	0.99
0.00123457 µM	0.866	0.965	1.08	1.06	0.981
0.0037037 µM	0.857	0.948	1.14	1.09	1.02
0.0111111 µM	0.918	0.954	1.08	1.08	0.983
0.0333333 µM	0.91	0.936	1.11	1.07	0.969
0.1 µM	0.858	0.91	1.06	1.03	0.9689
0.3 µM	0.808	0.863	1.07	1	0.942

CCN(CCCOc1ccc2c(Nc3cc(CC(=O)Nc4cccc(F)c4)[nH]n3)ncnc2c1)CCOP(=O)(O)O [Barasertib]
relative viability
Conditions	HS729	MES-SA	RD	SK-LMS-1	VA-ES-BJ
0.00017 µM	0.957	0.92	1.09	1.02	1.01
0.00051 µM	0.934	0.915	1.09	1.02	1.01
0.00152 µM	0.947	0.911	1.1	1.03	0.986
0.00457 µM	0.936	0.892	1.06	1	0.998
0.01372 µM	0.901	0.692	0.943	1.06	0.84
0.04115 µM	0.934	0.448	0.888	1.01	0.634
0.1235 µM	0.877	0.448	0.869	0.917	0.619
0.3704 µM	0.801	0.447	0.84	0.855	0.647
1.111 µM	0.8	0.436	0.803	0.904	0.689
3.333 µM	0.815	0.444	0.759	0.887	0.68
10 µM	0.804	0.398	0.681	0.867	0.727

FC(F)(F)c1ccc(CNc2ccc(Cc3c[nH]c4ncc(Cl)cc34)cn2)cn1 [Pexidartinib]
relative viability
Conditions	HS729	MES-SA	RD	SK-LMS-1	VA-ES-BJ
0.00017 µM	1.05	0.96	1.12	1.03	1.07
0.00051 µM	1.01	0.947	1.1	1.06	1.068
0.00152 µM	1.01	0.954	1.12	1.05	1.07
0.00457 µM	0.978	0.936	1.13	1.04	1.06
0.01372 µM	0.955	0.911	1.13	1.03	1.05
0.04115 µM	0.962	0.934	1.11	1.03	1.04
0.1235 µM	0.903	0.923	1.12	1.05	1.06
0.3704 µM	0.902	0.883	1.15	1.02	1.04
1.111 µM	0.861	0.892	1.14	0.995	1.03
3.333 µM	0.767	0.872	1.15	1	1.03
10 µM	0.683	0.69	1.17	0.864	1.05
